# Assays:
# HCT116-mock-RNA-KO = test: Cell killing in HCT116 isogenic pair (Cell Titer-Glo viability), mock knock-out cells with MTAP wildtype genotype; assay type: cell-based, human; details: 6 days incubation, 0-10 μM
# How it was run: (§1)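 HCT116 MTAP-knockout or mock-knockout (MTAP wildtype) cells in RPMI 1640 with 10% FBS were seeded overnight, then exposed to test compound at 0–10 μM final for 6 days at 37° C. Viability was measured by CellTiter-Glo luminescence and IC50 was fitted.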
# HCT116-MTAP-KO = test: Cell killing in HCT116 isogenic pair (Cell Titer-Glo viability), MTAP knock-out cells; assay type: cell-based, human; details: 6 days incubation, 0-10 μM, * = more than 50% viability inhibition at tested concentration without a full curve
# How it was run: as §1
Structure (SMILES),"IC50 (HCT116-mock-RNA-KO; Homo sapiens, HCT-116, 144 h)","IC50 (HCT116-MTAP-KO; Homo sapiens, HCT-116, 144 h)",IC50 (HCT116-mock-RNA-KO),IC50 (HCT116-MTAP-KO)
"C[C@@H](c1ncc(C2CC2)cc1F)N(C)C(=O)c1cc2nc(N)c3c(c2[nH]1)COC3 [Example 118, (S)-5-amino-N-(1-(5-cyclopropyl-3-fluoropyridin-2-yl)ethyl)-N-methyl-6,8-dihydro-1H-furo[3,4-d]pyrrolo[3,2-b]pyridine-2-carboxamide]",> 10000 nM,2250 nM,,
"C[C@H](c1ncc(C2CC2)cc1F)N(C)C(=O)c1cc2nc(N)c3c(c2[nH]1)COC3 [Example 119, (R)-5-amino-N-(1-(5-cyclopropyl-3-fluoropyridin-2-yl)ethyl)-N-methyl-6,8-dihydro-1H-furo[3,4-d]pyrrolo[3,2-b]pyridine-2-carboxamide]",1590 nM,9.8 nM,,
"CCN(C(=O)c1cc2nc(N)c3c(c2[nH]1)COC3)[C@H](C)c1ncc(C2CC2)cc1F [Example 120, (R)-5-amino-N-(1-(5-cyclopropyl-3-fluoropyridin-2-yl)ethyl)-N-ethyl-6,8-dihydro-1H-furo[3,4-d]pyrrolo[3,2-b]pyridine-2-carboxamide]",992 nM,5.6 nM,,
"CCN(C(=O)c1cc2nc(N)c3c(c2[nH]1)COC3)[C@@H](C)c1ncc(C2CC2)cc1F [Example 121, (S)-5-amino-N-(1-(5-cyclopropyl-3-fluoropyridin-2-yl)ethyl)-N-ethyl-6,8-dihydro-1H-furo[3,4-d]pyrrolo[3,2-b]pyridine-2-carboxamide]",> 10000 nM,586 nM,,
"C[C@@H](c1c(F)cc(Br)cc1F)N(C)C(=O)c1cc2nc(N)c3c(c2[nH]1)COC3 [Example 122, (S)-5-amino-N-(1-(4-bromo-2,6-difluorophenyl)ethyl)-N-methyl-6,8-dihydro-1H-furo[3,4-d]pyrrolo[3,2-b]pyridine-2-carboxamide]",5780 nM,2220 nM,,
"C[C@H](c1c(F)cc(Br)cc1F)N(C)C(=O)c1cc2nc(N)c3c(c2[nH]1)COC3 [Example 123, (R)-5-amino-N-(1-(4-bromo-2,6-difluorophenyl)ethyl)-N-methyl-6,8-dihydro-1H-furo[3,4-d]pyrrolo[3,2-b]pyridine-2-carboxamide]",4910 nM,46 nM,,
"CCN(C(=O)c1cc2nc(N)c3c(c2[nH]1)CO[C@@H]3C)[C@H](C)c1ccc(Br)cc1F [Example 124, (R)-5-amino-N—((R)-1-(4-bromo-2-fluorophenyl)ethyl)-N-ethyl-6-methyl-6,8-dihydro-1H-furo[3,4-d]pyrrolo[3,2-b]pyridine-2-carboxamide]",2470 nM,22 nM,,
CCN(C(=O)c1cc2nc(N)c3c(c2[nH]1)CO[C@@H]3C)[C@@H](C)c1ccc(Br)cc1F [Example 125],,,7460 nM,365 nM
"CCN(C(=O)c1cc2nc(N)c3c(c2[nH]1)CO[C@@H]3C)[C@H](C)c1ccc(C(F)(F)F)cc1F [Example 126, (R)-5-amino-N-ethyl-N—((R)-1-(2-fluoro-4-(trifluoromethyl)phenyl)ethyl)-6-methyl-6,8-dihydro-1H-furo[3,4-d]pyrrolo[3,2-b]pyridine-2-carboxamide]",1720 nM,11 nM,,
"CCN(C(=O)c1cc2nc(N)c3c(c2[nH]1)CO[C@@H]3C)[C@@H](C)c1ccc(C(F)(F)F)cc1F [Example 127, (R)-5-amino-N-ethyl-N—((S)-1-(2-fluoro-4-(trifluoromethyl)phenyl)ethyl)-6-methyl-6,8-dihydro-1H-furo[3,4-d]pyrrolo[3,2-b]pyridine-2-carboxamide]",5900 nM,236 nM,,
"CCN(C(=O)c1cc2nc(N)c3c(c2[nH]1)CO[C@@H]3C)[C@H](C)c1ncc(Br)cc1F [Example 128, (R)-5-amino-N—((R)-1-(5-bromo-3-fluoropyridin-2-yl)ethyl)-N-ethyl-6-methyl-6,8-dihydro-1H-furo[3,4-d]pyrrolo[3,2-b]pyridine-2-carboxamide]",1050 nM,6 nM,,
"CCN(C(=O)c1cc2nc(N)c3c(c2[nH]1)CO[C@@H]3C)[C@@H](C)c1ncc(Br)cc1F [Example 129, (R)-5-amino-N—((S)-1-(5-bromo-3-fluoropyridin-2-yl)ethyl)-N-ethyl-6-methyl-6,8-dihydro-1H-furo[3,4-d]pyrrolo[3,2-b]pyridine-2-carboxamide]",> 10000 nM,1180 nM,,
"CCN(C(=O)c1cc2nc(N)c3c(c2[nH]1)CO[C@@H]3C)[C@H](C)c1ncc(C(F)(F)F)cc1F [Example 130, (R)-5-amino-N-ethyl-N—((R)-1-(3-fluoro-5-(trifluoromethyl)pyridin-2-yl)ethyl)-6-methyl-6,8-dihydro-1H-furo[3,4-d]pyrrolo[3,2-b]pyridine-2-carboxamide]",1090 nM,8.5 nM,,
"CCN(C(=O)c1cc2nc(N)c3c(c2[nH]1)CO[C@@H]3C)[C@@H](C)c1ncc(C(F)(F)F)cc1F [Example 131, (R)-5-amino-N-ethyl-N—((S)-1-(3-fluoro-5-(trifluoromethyl)pyridin-2-yl)ethyl)-6-methyl-6,8-dihydro-1H-furo[3,4-d]pyrrolo[3,2-b]pyridine-2-carboxamide]",> 10000 nM,1830 nM,,
"CCN(C(=O)c1cc2nc(N)c3c(c2[nH]1)COC3)[C@H](C)c1ncc(N2CCOCC2)cc1F [Example 132, 5-amino-N-ethyl-N-(1-(3-fluoro-5-morpholinopyridin-2-yl)ethyl)-6,8-dihydro-1H-furo[3,4-d]pyrrolo[3,2-b]pyridine-2-carboxamide]",> 10000 nM,45 nM,,
"CCN(C(=O)c1cc2nc(N)c3c(c2[nH]1)COC3)[C@H](C)c1ccc(Br)cc1F [Example 133, (R)-5-amino-N-(1-(4-bromo-2-fluorophenyl)ethyl)-N-ethyl-6,8-dihydro-1H-furo[3,4-d]pyrrolo[3,2-b]pyridine-2-carboxamide]",1340 nM,13 nM,,
"CCN(C(=O)c1cc2nc(N)c3c(c2[nH]1)COC3)[C@@H](C)c1ccc(Br)cc1F [Example 134, (S)-5-amino-N-(1-(4-bromo-2-fluorophenyl)ethyl)-N-ethyl-6,8-dihydro-1H-furo[3,4-d]pyrrolo[3,2-b]pyridine-2-carboxamide]",2880 nM,336 nM,,
"CCN(C(=O)c1cc2nc(N)c3c(c2[nH]1)COC3)[C@H](C)c1ccc(C(F)(F)F)cc1F [Example 135, (R)-5-amino-N-ethyl-N-(1-(2-fluoro-4-(trifluoromethyl)phenyl)ethyl)-6,8-dihydro-1H-furo[3,4-d]pyrrolo[3,2-b]pyridine-2-carboxamide]",2130 nM,26 nM,,
"CCN(C(=O)c1cc2nc(N)c3c(c2[nH]1)COC3)[C@@H](C)c1ccc(C(F)(F)F)cc1F [Example 136, (S)-5-amino-N-ethyl-N-(1-(2-fluoro-4-(trifluoromethyl)phenyl)ethyl)-6,8-dihydro-1H-furo[3,4-d]pyrrolo[3,2-b]pyridine-2-carboxamide]",3520 nM,245 nM,,
"C[C@H](c1ccc(Br)cc1F)N(C)C(=O)c1cc2nc(N)c3c(c2[nH]1)COC3 [Example 137, (R)-5-amino-N-(1-(4-bromo-2-fluorophenyl)ethyl)-N-methyl-6,8-dihydro-1H-furo[3,4-d]pyrrolo[3,2-b]pyridine-2-carboxamide]",3020 nM,44 nM,,
"C[C@@H](c1ccc(Br)cc1F)N(C)C(=O)c1cc2nc(N)c3c(c2[nH]1)COC3 [Example 138, (S)-5-amino-N-(1-(4-bromo-2-fluorophenyl)ethyl)-N-methyl-6,8-dihydro-1H-furo[3,4-d]pyrrolo[3,2-b]pyridine-2-carboxamide]",3240 nM,913 nM,,
"C[C@H](c1ccc(Br)cc1F)N(C)C(=O)c1cc2nc(N)c3c(c2[nH]1)CO[C@@H]3C [Example 139, (R)-5-amino-N—((R)-1-(4-bromo-2-fluorophenyl)ethyl)-N,6-dimethyl-6,8-dihydro-1H-furo[3,4-d]pyrrolo[3,2-b]pyridine-2-carboxamide]",2400 nM,12 nM,,
"C[C@H]1OCc2c1c(N)nc1cc(C(=O)N(C)[C@@H](C)c3ccc(Br)cc3F)[nH]c21 [Example 140, (R)-5-amino-N—((S)-1-(4-bromo-2-fluorophenyl)ethyl)-N,6-dimethyl-6,8-dihydro-1H-furo[3,4-d]pyrrolo[3,2-b]pyridine-2-carboxamide]",3030 nM,270 nM,,
"Nc1nc2cc(C(=O)N3CCOC[C@@H]3c3ccc(C(F)(F)F)cc3)[nH]c2c2c1COC2 [Example 141, (S)-(5-amino-6,8-dihydro-1H-furo[3,4-d]pyrrolo[3,2-b]pyridin-2-yl)(3-(4-(trifluoromethyl)phenyl)morpholino)methanone]",> 10000 nM,149 nM,,
"C[C@H](c1ncc(C2CC2)cc1F)N(C)C(=O)c1cc2nc(N)c3c(c2[nH]1)CO[C@@H]3C [Example 142, (R)-5-amino-N—((R)-1-(5-cyclopropyl-3-fluoropyridin-2-yl)ethyl)-N,6-dimethyl-6,8-dihydro-1H-furo[3,4-d]pyrrolo[3,2-b]pyridine-2-carboxamide]",477 nM,2.6 nM,,
"CCN(C(=O)c1cc2nc(N)c3c(c2[nH]1)COC3)[C@H](C)c1ncc(Br)cc1F [Example 143, (R)-5-amino-N-(1-(5-bromo-3-fluoropyridin-2-yl)ethyl)-N-ethyl-6,8-dihydro-1H-furo[3,4-d]pyrrolo[3,2-b]pyridine-2-carboxamide]",1380 nM,11 nM,,
"CCN(C(=O)c1cc2nc(N)c3c(c2[nH]1)COC3)[C@@H](C)c1ncc(Br)cc1F [Example 144, (S)-5-amino-N-(1-(5-bromo-3-fluoropyridin-2-yl)ethyl)-N-ethyl-6,8-dihydro-1H-furo[3,4-d]pyrrolo[3,2-b]pyridine-2-carboxamide]",> 10000 nM,543 nM,,

# Source: patent publication US20240368177A1, “5-AMINO-6,8-DIHYDRO-1H-FURO[3,4-d]PYRROLO[3,2-b]PYRIDINE-2-CARBOXAMIDE DERIVATIVES AS MTA-COOPERATIVE INHIBITORS OF PRMT5” (BeiGene Switzerland GmbH, priority 2023, published 2024)
